How the values were obtained:
[1] = tested on: ‘Red Delicious’ apple fruit; assay: Physiology of MCP-treated stored apple fruit (respiration, firmness); assay type: in vivo, Malus x domestica Borkh.; conditions: Red Delicious after five months storage in air at 0° C. and warming
Description: ‘Gala’, ‘Empire’, ‘Jonagold’, and ‘Red Delicious’ apple fruit (Malus x domestica Borkh.) were harvested from local orchards at commercial maturity and transported to the laboratory during the 2022 and 2023 seasons. As determined by previously described methods, the fruit were at the developmental onset of ripening with no subjectively discernible aroma. ‘Gala’ and ‘Empire’ fruits began treatment immediately after arrival in the laboratory. ‘Jonagold’ fruit were held in air at 0° C. for two days before transfer to controlled atmosphere (CA) storage (1.5 O2, 3% CO2, 0° C.) and then kept in CA for twelve days to suppress ethylene action before the initiation of inhibitor treatment. ‘Red Delicious’ fruit were treated with 50 nL·^−1 1-methylcyclopropene (MCP) for 24 h at 0° C. The MCP was evolved from a commercial MCP product (EASYFRESH®, Fine Americas) in sealed chambers two days after harvest as previously described. The fruit were then stored in air at 0° C. for five months and were warmed to 22° C. for 24 h before sulfonylurea treatment. This low-dosage MCP treatment had very mild effects on physiology. […] Based on the internal ethylene concentration (˜100 μL·L^−1) and the total ester production (elevated and trending upwards), the fruit were considered to be of an advanced stage of ripeness, but not senescent. […]

[2] = tested on: banana pulp; assay: Headspace volatile ester emissions of banana pulp sections treated with AHAS inhibitor; set-up: species or system Musa spp. AAA group, Cavendish subgroup, cv. Valery; key to 1-methylbutyl acetate emissions compared to control: —: Dash indicates no significant difference between treatments
Excerpt: Banana fruit at an early stage of ripening were infiltrated with AHAS inhibitors by two means. The first method was used for the effects of sulfonylureas on volatile and amino acid content, whereas the second was used to investigate the recovery of sulfonylurea-treated fruits after precursor application.
(§1) In the first method, mature green ‘Valery’ fruit were cut into ˜1 cm^2 sections, 2-mm thick, from transverse sections of fruit not treated with ethylene. Care was taken such that one edge of the square was from the edge of the pulp, thus representing an undisturbed or ‘live edge’ of cells that should be able to maintain unhindered gas exchange. Pulp sections were prepared in vials as above described for apples. Treatment solution: 0.5 mM halosulfuron-methyl (methyl 3-chloro-5-(4,6-dimethoxypyrimidin-2-ylcarbamoylsulfamoyl)-1-methylpyrazole-4-carboxylate, made from SANDEA®, Gowan Co. 75% w/w active ingredient; 0.1% Tween 20). Ripening was induced by injection of 1 μL ethylene into the vial's 20-mL headspace. The following day the vials were vented for 15 min before having the Mininert valve (Valco Instruments Co. Inc.) replaced on the vial but with a needle inserted to allow for gas diffusion. Daily for the following two days, 20 μL of freshly made inhibitor or water solution was added onto the pulp. The needles were again kept in the valves to maintain gas diffusion. The next day, and thus four days since initially preparing the vials, the needles were removed, and the vials were sealed and incubated for at least 1 hour at room temperature (22° C.) before headspace sampling.
Headspace volatiles from small tissue samples incubated in 22 mL vials were adsorbed for 30 s using a solid-phase micro extraction (SPME) fiber (65 μm PDMS-DVB; Supelco Analytical). The SPME fiber was then directly desorbed for 1 min in the injection port of a gas chromatograph (GC; HP-6890, Hewlett-Packard) coupled to a time-of-flight mass spectrometer (MS; Pegasus II, LECO). Whole fruits and banana slices were incubated for 20 min at room temperature (22° C.) in 1-L sealed Teflon jars before a 15-s, or 3-min adsorption and 1- or 2-min desorption. Adsorption times were adjusted to ensure instrument responses were in the linear range. All desorbed volatiles were cryofocused at the beginning of the column by immersing said region of the column in liquid nitrogen. After the desorption period, the run was initiated and the liquid nitrogen removed.
The conditions of the system were as follows. Injection port: 200° C., splitless, ultra-purified helium (99.999%) carrier gas, front inlet flow 1.5 mL·min^−1 constant, 10 mL·min^−1 purge flow, 11.5 mL·min^−1 total flow. Oven: initial temperature 40° C. for 0 min, ramped by 43° C.·min^−1 to 185° C. for 0 min. Column: HP-5 MS, 30 m×0.25 mm i.d., 0.25 μm film thickness (Agilent). Transfer line temperature 225° C. MS: Electron ionization (−70 eV), ion source temperature 200° C., solvent delay 50 sec, m/z range 29 to 400, detector voltage 1500 V, data collection rate 20 Hz.
Compounds were identified by comparison of the retention time and mass spectrum against authenticated reference standards and spectra (National Institute of Standards and Technology Mass Spectral Search Program Version 2.0, 2001). Volatiles were quantified by calibration with a standard of 59 authenticated, high-purity compounds (Sigma-Aldrich Co. and Fluka Chemical) including the target compounds. The standard was made by placing 0.5 μL of an equal-part mixture of the neat compounds onto a disc of filter paper before quickly placing the filter paper into a 4-L sealed flask fitted with a Mininert valve (for SPME fiber access, and allowed to vaporize for at least 6 hours. SPME adsorption and desorption times of the standard matched that of the samples quantified (e.g., 30-s adsorption, 1 min desorption when quantifying samples in 22-mL vials).
Statistical analysis was performed using SciPy (v1.6.2), RStudio (v2023.03.0+386), or Microsoft Excel (v16.89). […]

[3] = tested on: banana pulp; assay: Free amino acid content of banana pulp via UPLC-MS/MS after AHAS inhibitor treatment; set-up: species or system Musa spp. AAA group, Cavendish subgroup, cv. Valery; key to free asparagine content compared to control / free glutamine content compared to control / free histidine content compared to control / free isoleucine content compared to control / free lysine content compared to control / free methionine content compared to control / free phenylalanine content compared to control / free threonine content compared to control / free tryptophan content compared to control / free arginine content compared to control: —: Dash indicates no significant difference between treatments
Description: as §1
After volatile analysis, apple peel disks, collected peel of flowering quince, and ‘Valery’ pulp section samples were held at −80° C. for further amino acid analysis.
Frozen samples were ground to a powder in liquid nitrogen-chilled mortar and pestles. About 500 mg of tissue was vortexed for 10 sec in 2 mL of room temperature (22° C.) extraction solution (1:1:1 water:acetonitrile:ethanol, v/v/v) spiked with 2 nmoles of U-^13C,^15N labeled amino acids (MilliporeSigma) as internal standards and heated for 15 min in a 65° C. water bath. Extracts were briefly chilled on ice before centrifugation at 4400×g for 15 min at 4° C. The supernatant was filtered by centrifugation (0.2 μm nylon centrifugal filter; Costar, Corning) at 21000×g for 5 min at room temperature. 10 μL of the filtrate was transferred to an autosampler vial and diluted 100-fold with 990 μL of 10.1 mM perfluorohexanoic acid (PFHA) spiked with […] of internal standard. Thus the final concentration of internal standard was ˜2 μM.
An amino acid standard series was prepared from a premade mixture (MilliporeSigma, AAS18) that contained equal molar amounts of cystine and all 20 proteinogenic amino acids save for tryptophan, asparagine, glutamine, and cysteine. An equal molar mixture of tryptophan, asparagine, glutamine, and cysteine was subsequently prepared. To avoid dilution errors or artefacts from differing buffers, these amino acid stocks were aliquoted and desiccated such that a five-part standard series ranging from 250 μM to 25 nM would be produced upon resuscitation with 10 μL of spiked extraction buffer and 990 μL spiked PFHA solution.
Samples and amino acids were held overnight at −20° C. before analysis. Amino acids were analyzed with a Xevo TQ-S Micro UPLC (H-Class)-MS/MS (Waters) at the Michigan State University Mass Spectrometry and Metabolomics Core. Conditions were as follows. HPLC column: Acquirt UPLC HSS T3, 2.1×100 mm, 1.7 μm particle size (Waters), with a 0.2 μm pre-column filter (Waters). Mobile phase: A) 10 mM PFHA in water, B) acetonitrile. LC gradient: linear gradient, slope setting=6, flow rate=0.3 mL·min^−1, step 1) 0 min, 100% A, 0% B, 2) 1 min, 100% A, 0% B, 3) 8 min, 35% A, 65% B, 4) 8.01 min, 10% A, 90% B, 5) 9 min, 10% A, 90% B, 6) 9.01 min, 100% A, 0% B, 7) 13 min, 100% A, 0% B. Column temp: 40° C. Autosampler temp: 10° C. Injection volume: 10 μL. Tune parameters: electrospray ionization, standard ESI probe, capillary voltage=+1.0 kV, source temp=120° C., desolvation temp=350° C., desolvation gas=800 L·hr^−1, cone gas=40 L·hr^−1. […]

[4] = Valery banana pulp sections, 0.5 mM

With `CC1=CC1` [MCP, 1-methylcyclopropene] the “respiration rate of MCP-treated fruit relative to untreated fruit” value [1] was 88.7%.

With `COC(=O)c1c(Cl)nn(C)c1S(=O)(=O)NC(=O)Nc1nc(OC)cc(OC)n1` [halosulfuron-methyl, methyl 3-chloro-5-(4,6-dimethoxypyrimidin-2-ylcarbamoylsulfamoyl)-1-methylpyrazole-4-carboxylate] the “ethyl acetate, butyl acetate, and butyl butanoate collectively reduced” value ([2]; Valery banana fruit) was 95.0%, the “reduction in the total content of iso-branched-chain esters in the headspace” value ([2]; Valery banana fruit) was 90.3% and the “sec-branched esters or related volatiles (2-pentanone, 2-pentanol, 1-methylbutyl acetate, 1-methylbutyl butanoate) affected by inhibitor treatment” value ([2]; Valery banana fruit) was “None”. For the same molecule, the “1-methylbutyl acetate emissions compared to control” value [2, 4] was “—”, the “2-methylpropyl acetate (val) emissions compared to control” value [2, 4] was 2.0 ± 0.7% and the “3-methylbutyl acetate (leu) emissions compared to control” value [2, 4] was 10.4 ± 5.4%. For the same molecule, the “butyl acetate emissions compared to control” value [2, 4] was 3.9 ± 2.7%, the “ethyl acetate emissions compared to control” value [2, 4] was 3.9 ± 2.4% and the “sum of anteiso- and iso-branched-chain esters emissions compared to control” value [2, 4] was 9.7 ± 3.6%. For the same molecule, the isoleucine levels ([3]; Valery banana fruit) was “unchanged”, the “total content of free amino acids” value ([3]; Valery banana fruit) was “increased” and the “valine and leucine less abundant” value ([3]; Valery banana fruit) was 57.6%. The “free alanine content compared to control” value [3, 4] was 407.4 ± 66.8%, the “free arginine content compared to control” value [3, 4] was “—” and the “free asparagine content compared to control” value [3, 4] was “—”. For the same molecule, the “free aspartate content compared to control” value [3, 4] was 332.7 ± 30.1%, the “free cysteine content compared to control” value [3, 4] was 264.2 ± 46.6% and the “free glutamate content compared to control” value [3, 4] was 217.4 ± 23.9%. The “free glutamine content compared to control” value [3, 4] was “—”, the “free glycine content compared to control” value [3, 4] was 173.1 ± 39.9% and the “free histidine content compared to control” value [3, 4] was “—”. For the same molecule, the “free isoleucine content compared to control” value [3, 4] was “—”, the “free leucine content compared to control” value [3, 4] was 65.8 ± 6.1% and the “free lysine content compared to control” value [3, 4] was “—”. The “free methionine content compared to control” value [3, 4] was “—”, the “free phenylalanine content compared to control” value [3, 4] was “—” and the “free proline content compared to control” value [3, 4] was 188.4 ± 18.7%. The “free serine content compared to control” value [3, 4] was 186.2 ± 14.5%, the “free threonine content compared to control” value [3, 4] was “—” and the “free tryptophan content compared to control” value [3, 4] was “—”. For the same molecule, the “free tyrosine content compared to control” value [3, 4] was 142.3 ± 25.1%, the “free valine content compared to control” value [3, 4] was 14.3 ± 0.8% and the “total free amino acid content compared to control” value [3, 4] was 150.6 ± 13.7%.
